“And” between values parts separate entries of the source, which are not always exact repeats. Equal entries are not always repeated. Where two headings read alike, the source gives them in different places.
Tests used:
[1] = system: cytochrome P450 enzymes, including CYP2C8 and CYP3A4/5; test: In vitro metabolism studies; type: in vitro ADME; conditions: preliminary results
[2] = for Discontinued GDC-0941/placebo: Non-PD, patients (%): events unrelated to disease progression, all arms on fulvestrant
[3] = system: advanced or metastatic ER+ breast cancer (MBC); conditions: for Median PFS / Events (PFS): all arms on fulvestrant; for HR (PFS): GDC-0941 vs placebo, both on fulvestrant
[4] = 340 mg dose in combination with fulvestrant
[5] = All luminal A/B typed patients (N 74/72)
[6] = PIK3CA Mutation Status Positive
[7] = PIK3CA Mutation Status Wild Type
[8] = PR+ subgroup of PAM50-typed patients (N 50/52)

SMILES: CS(=O)(=O)N1CCN(Cc2cc3nc(-c4cccc5[nH]ncc45)nc(N4CCOCC4)c3s2)CC1 [GDC-0941, 4-(2-(1H-indazol-4-yl)-6-((4-(methylsulfonyl)piperazin-1-yl)methyl)thieno[3,2-d]pyrimidin-4-yl)morpholine]
- in vitro metabolism [1]: partially metabolized by multiple Phase I cytochrome P450 enzymes, including CYP2C8 and CYP3A4/5
- Patients who experienced a dose modification for an adverse event [2, 4]: 66%
- Rate of discontinuation for non-PD events [2, 4]: 31%
- Tolerability [2, 4]: acceptable tolerability profile
- Discontinued GDC-0941/placebo: Non-PD, patients (%) [2]: 28 (31%)
- Urinary tract infection, All Grades, patients (%) ([2]; human, in vivo): 9 (10%)
- AST increased, All Grades, patients (%) ([2]; n = 89, with fulvestrant): 11 (12%)
- AST increased, Grade ≥3, patients (%) ([2]; n = 89, with fulvestrant): 3 (3%)
- Abdominal pain, All Grades, patients (%) ([2]; n = 89, with fulvestrant): 9 (10%)
- Abdominal pain, Grade ≥3, patients (%) ([2]; n = 89, with fulvestrant): 2 (2%)
- Alopecia, All Grades, patients (%) ([2]; n = 89, with fulvestrant): 10 (11%)
- Arthralgia, All Grades, patients (%) ([2]; n = 89, with fulvestrant): 11 (12%)
- Constipation, All Grades, patients (%) ([2]; n = 89, with fulvestrant): 14 (16%)
- Cough, All Grades, patients (%) ([2]; n = 89, with fulvestrant): 14 (15%)
- Decreased appetite, All Grades, patients (%) ([2]; n = 89, with fulvestrant): 20 (23%)
- Decreased appetite, Grade ≥3, patients (%) ([2]; n = 89, with fulvestrant): 1 (1%)
- Diarrhea, All Grades, patients (%) ([2]; n = 89, with fulvestrant): 58 (65%)
- Diarrhea, Grade ≥3, patients (%) ([2]; n = 89, with fulvestrant): 5 (6%)
- Discontinued GDC-0941/placebo: Adverse Events, patients (%) ([2]; n = 89, with fulvestrant): 16 (18%)
- Discontinued fulvestrant for non-PD, patients (%) ([2]; n = 89, with fulvestrant): 15 (17%)
- Dry skin, All Grades, patients (%) ([2]; n = 89, with fulvestrant): 9 (10%)
- Dysgeusia, All Grades, patients (%) ([2]; n = 89, with fulvestrant): 35 (39%)
- Dyspepsia, All Grades, patients (%) ([2]; n = 89, with fulvestrant): 10 (11%)
- Dyspneoa, All Grades, patients (%) ([2]; n = 89, with fulvestrant): 10 (11%)
- Fatigue, All Grades, patients (%) ([2]; n = 89, with fulvestrant): 36 (40%)
- Fatigue, Grade ≥3, patients (%) ([2]; n = 89, with fulvestrant): 5 (6%)
- Headache, All Grades, patients (%) ([2]; n = 89, with fulvestrant): 12 (14%)
- Headache, Grade ≥3, patients (%) ([2]; n = 89, with fulvestrant): 1 (1%)
- Hot flush, All Grades, patients (%) ([2]; n = 89, with fulvestrant): 12 (13%)
- Hyperglycemia, All Grades, patients (%) ([2]; n = 89, with fulvestrant): 16 (18%)
- Hyperglycemia, Grade ≥3, patients (%) ([2]; n = 89, with fulvestrant): 4 (5%)
- Injection site pain, All Grades, patients (%) ([2]; n = 89, with fulvestrant): 10 (11%)
- Mucosal inflammation, All Grades, patients (%) ([2]; n = 89, with fulvestrant): 9 (10%)
- Muscle spasms, All Grades, patients (%) ([2]; n = 89, with fulvestrant): 10 (11%)
- Nausea, All Grades, patients (%) ([2]; n = 89, with fulvestrant): 48 (54%)
- Nausea, Grade ≥3, patients (%) ([2]; n = 89, with fulvestrant): 2 (2%)
- Pruritus, All Grades, patients (%) ([2]; n = 89, with fulvestrant): 11 (12%)
- Pruritus, Grade ≥3, patients (%) ([2]; n = 89, with fulvestrant): 1 (1%)
- Pyrexia, All Grades, patients (%) ([2]; n = 89, with fulvestrant): 12 (13%)
- Stomatitis, All Grades, patients (%) ([2]; n = 89, with fulvestrant): 16 (18%)
- Stomatitis, Grade ≥3, patients (%) ([2]; n = 89, with fulvestrant): 2 (2%)
- Vomiting, All Grades, patients (%) ([2]; n = 89, with fulvestrant): 24 (27%)
- Vomiting, Grade ≥3, patients (%) ([2]; n = 89, with fulvestrant): 2 (2%)
- Median PFS ([3]; All Patients (ITT)): 6.2 Months
- HR (PFS) [3, 5]: 0.81
- Events (PFS) [3, 5]: 33/39
- Median PFS [3, 5]: 6.18/5.09 months
- Median PFS ([3]; Baseline ECOG Score 0): 6.6 Months
- Median PFS ([3]; Baseline ECOG Score 1): 5.0 Months
- Median PFS ([3]; Bone Only Non-Measureable Disease at Baseline No): 5.0 Months
- Events (PFS) ([3]; LumA (N 46/52)): 15/27
- Events (PFS) ([3]; LumB (N 28/20)): 18/12
- Median PFS ([3]; LumB (N 28/20)): 3.7 months and 3.71/3.55 months
- HR (PFS) ([3]; LumB): 1.05
- Median PFS ([3]; Measurable Disease at Baseline (Derived) Yes): 5.0 Months
- Median PFS ([3]; Num of Previous Therapies in Metastatic Setting 0): 6.6 Months
- Median PFS ([3]; Num of Previous Therapies in Metastatic Setting 1): 6.2 Months
- Median PFS ([3]; Num of Previous Therapies in Metastatic Setting 3+): 3.6 Months
- Median PFS ([3]; PIK3CA Helical Domain Mutation Status Positive): 7.3 Months
- Median PFS ([3]; PIK3CA Helical Domain Mutation Status Wild Type): 6.2 Months
- Median PFS ([3]; PIK3CA Kinase Domain Mutation Status Positive): 6.2 Months
- Median PFS ([3]; PIK3CA Kinase Domain Mutation Status Wild Type): 6.6 Months
- Median PFS [3, 6]: 6.2 Months
- Median PFS [3, 7]: 5.8 Months
- Median PFS ([3]; PR Status Negative): 5 Months
- Median PFS ([3]; PR Status Negative, listed as GDC0941): 5.0 Months
- Median PFS ([3]; PR Status Positive (n=116)): 7.2 Months
- Median PFS ([3]; PR Status Unknown): 2.9 Months
- HR (PFS) [3, 8]: 0.47
- Events (PFS) [3, 8]: 19/32
- Median PFS [3, 8]: 7.16/3.68 months
- Events (PFS) ([3]; PR+, LumA (N 34/39)): 9/25
- HR (PFS) ([3]; PR+, LumA (n=73)): 0.31
- Events (PFS) ([3]; PR+, LumB (N 16/13)): 10/7
- Median PFS ([3]; PR+, LumB (N 16/13)): 3.91/3.32 months
- HR (PFS) ([3]; PR+, LumB): 0.92
- Events (PFS) ([3]; PR−, LumA (N 9/7)): 3/2
- HR (PFS) ([3]; PR−, LumA): 1.75
- Median PFS ([3]; Primary Resistance (Derived)): 5.0 Months
- Median PFS ([3]; Primary/Secondary Resistance Unknown): 1.7 Months
- Median PFS ([3]; Received Prior Adjuvant/Neo-Adjuvant Therapy No): 4.1 Months
- Median PFS ([3]; Received Prior Adjuvant/Neo-Adjuvant Therapy Yes): 7.2 Months
- Median PFS ([3]; Visceral Disease No): 8.2 Months
- Median PFS ([3]; Visceral Disease Yes): 4.1 Months
- Overall improvement of median PFS vs placebo group ([3]; patients positive for both the estrogen and progesterone receptor): over 15 weeks

SMILES: C[C@]12CC[C@@H]3c4ccc(O)cc4C[C@@H](CCCCCCCCC[S+]([O-])CCCC(F)(F)C(F)(F)F)[C@H]3[C@@H]1CC[C@@H]2O (stereo partly drawn) [fulvestrant, (7α,17β)-7-{9-[(4,4,5,5,5-pentafluoropentyl)sulfinyl]nonyl}estra-1,3,5(10)-triene-3,17-diol, reference compound]
- Discontinued GDC-0941/placebo: Non-PD, patients (%) [2]: 10 (13%)
- Median PFS ([3]; All Patients (ITT)): 3.8 Months
- Median PFS ([3]; Luminal A subgroup (n=98)): 5.26 months
- Median PFS [3, 6]: 5.1 Months
- Median PFS [3, 7]: 3.6 Months
- Median PFS ([3]; PR Status Positive (n=116)): 3.7 Months
- Median PFS ([3]; PR-positive and Luminal A (n=73)): 5.7 months
- Response rate on the basis of local assessment ([3]; all patients): 5%
- Response rate ([3]; patients with PIK3CA-mutant tumors): 3%
- Response rate ([3]; patients without a detectable PIK3CA-mutant tumor): 5%
